Counter-ions that a name gives are not always drawn. Like-named read-outs stand apart in the source and are kept apart here.
Test system: premature stop codon
Test: Premature stop codon readthrough (nonsense suppression), full length protein production by enzyme-linked immunosorbent assay
Format: cell-based
Description: Table 1 also provides the median maximum fold increase of the full length protein production over DMSO-treated samples as also determined by enzyme-linked immunosorbent assay within the concentration range tested (up to 1 mM).

[1] = median, enzyme-linked immunosorbent assay, concentration range tested up to 1 mM
[2] = median, enzyme-linked immunosorbent assay, within concentration range tested (up to 1 mM)

Molecule	EC2X (median concentration that doubles the intensity of the nonsense suppression) [1] [µM]	Max Fold over DMSO (median maximum fold increase of full length protein production over DMSO-treated samples) [2]	EC2X (median concentration that doubles the intensity of the nonsense suppression) [µM]	Max Fold over DMSO (median maximum fold increase of full length protein production over DMSO-treated samples)
CN[C@@H]1[C@@H](O)[C@@H](O[C@@H]2[C@@H](O)[C@H](O[C@H]3O[C@H]([C@H](C)N)CC[C@H]3N)[C@@H](N)C[C@H]2N)OC[C@]1(C)O.O=S(=O)(O)O [Gentamicin C2a sulfate]	260	3.1	–	–
Gentamicin C1a sulfate	–	–	135	2.6
CN[C@@H]1[C@@H](O)[C@@H](O[C@@H]2[C@@H](O)[C@H](O[C@H]3O[C@H](CO)[C@@H](O)[C@H](O)[C@H]3N)[C@@H](N)C[C@H]2N)OC[C@]1(C)O [Compound 1 sulfate, (2R,3S,4R,5R,6S)-5-amino-6-(((1R,2S,3S,4R,6S)-4,6-diamino-3-(((2R,3R,4R,5R)-3,5-dihydroxy-5-methyl-4-(methylamino)tetrahydro-2H-pyran-2-yl)oxy)-2-hydroxycyclohexyl)oxy)-2-(hydroxymethyl)tetrahydro-2H-pyran-3,4-diol]	19	47	–	–

The next lines start with results.

EC2X (median concentration that doubles the intensity of the nonsense suppression) [1] [µM]	Max Fold over DMSO (median maximum fold increase of full length protein production over DMSO-treated samples) [2]	Molecule	EC2X (median concentration that doubles the intensity of the nonsense suppression) [µM]	Max Fold over DMSO (median maximum fold increase of full length protein production over DMSO-treated samples)
95	5.5	CN[C@@H]1[C@@H](O)[C@@H](O[C@@H]2[C@@H](O)[C@H](O[C@H]3O[C@H]([C@@H](C)N)CC[C@H]3N)[C@@H](N)C[C@H]2N)OC[C@]1(C)O [Gentamicin C2 sulfate]	–	–
100	3.7	CN[C@@H]1[C@@H](O)[C@@H](O[C@@H]2[C@@H](O)[C@H](O[C@H]3O[C@H]([C@@H](C)NC)CC[C@H]3N)[C@@H](N)C[C@H]2N)OC[C@]1(C)O.O=S(=O)(O)O [Gentamicin C1 sulfate]	–	–
566	4.1	CN[C@@H]1[C@@H](O)[C@@H](O[C@@H]2[C@@H](O)[C@H](O[C@H]3O[C@H](CO)[C@@H](O)[C@H](O)[C@H]3N)[C@@H](N)C[C@H]2N)OC[C@H]1O [Gentamicin A sulfate]	–	–

— patent US10555960B2, “Use of an aminoglycoside for nonsense mutation suppression and the treatment of disease” (PTC Therapeutics, Inc., priority 2015, dated 2020)
